Results published in patent publication US20250107543A1, “TREATMENT OF AGRICULTURAL, FOOD AND RELATED PRODUCTS FOR ELIMINATING CONTAMINANTS AND ENCHANCING SHELF-LIFE” (priority 2022, published 2025).

Key:
[1] = C17H12O6 content of treated whole red chilli; settings: whole red chilli 12 kg's
Protocol: (§1) This experiment illustrates the treatment of aerobic micro-organisms, yeast, mould, coliform, E. coli, Salmonella and fat soluble metabolites contaminated whole red chilli.
(§2) The data presented in Table-2 illustrate the efficacy of the present disclosure in detoxifying contaminated whole red chillies. […].
(§3) The red chillies were exposed with Trioxygen for 2 minutes. The products were put under pressure of trioxygen gas for a span of 9 minutes to 26 minutes. Based on the commodity characteristics, the exposure of trioxygen gas was repeated 10 times. Trioxygen gas having a capacity 500 g/h was generated by the trioxygen generator (on site) of the system with a constant oxygen flow rate and delivered to the decontamination chamber through silicon tube. The whole red chillies were then treated to heated air.

aerobic micro-organisms = assay: Aerobic/Total Plate Count of whole red chilli after pre-conditioning, trioxygen and heated air; settings: whole red chilli 12 kg's
Protocol: as §1, §2, §3

[2] = Pesticide residue in treated whole red chilli: Myclobutanil; settings: whole red chilli 12 kg's, Trial 1; HOCL and Trioxygen simultaneously
Source text: (§4) This experiment illustrates the treatment of whole red chilli contaminated with pesticide residues.
(§5) The data presented in Table-6 illustrates the efficacy of the present disclosure in detoxifying contaminated whole red chillies. Sets of whole red chillies of 12 kg's contaminated with pesticides like Azoxystrobin, Imidacloprid Novaluron and Myclobutanil were used for the experiment. An inert gas (Nitrogen & Carbon-di-oxide) were introduced into the chamber filled with the material to drive out existing air and oxygen in the chamber. Pre-conditioning was carried out with HOCL and trioxygen being introduced simultaneously in decontamination chamber with faster decontamination process in the system with a shorter timeline protocol.
(§6) The red chillies were exposed with HOCL and Trioxygen simultaneously for 2 minutes. The products were put under pressure of 2 bar of trioxygen gas for a span of 9 minutes to 26 minutes. Based on the commodity characteristics, the exposure of trioxygen gas was repeated 10 times. Trioxygen gas having a capacity 500 g/h was generated by the trioxygen generator (on site) of the system with a constant oxygen flow rate and delivered to the decontamination chamber through silicon tube. The whole red chillies were then treated to heated air.

weevils and weevil eggs [3] = assay: Shelf-Life Assessment of Rice; set-up: key to Visual observation: Pin holes on grain / Visual observation: Powder at the bottom of bag / Weevils/Insects: ✓ Not observed; x Observed; settings: for Visual observation: Pin holes on grain / Visual observation: Powder at the bottom of bag / Weevils/Insects: Treated sample
Protocol: (§7) The data presented in Table-5 illustrates the efficiency of the system of the present disclosure in pre-conditioning and deactivation of weevils and weevil eggs results in delayed occurrence of insect infestation in grains.
(§8) Grains such as Dry corn, Groundnut, Rice & Wheat were separately pre-conditioned and decontaminated in the system of the present disclosure. Grains were exposed to trioxygen gas for up to 5 minutes. The products were put under pressure of trioxygen gas for a span of 9 minutes to 26 minutes. Trioxygen gas having capacity 500 g/h was generated by the trioxygen generator of the system (on site) with a constant oxygen flow rate and delivered to the decontamination chamber through silicon tube. All products were treated with hot air and then analyzed for the presence of the weevils and weevil eggs the results obtained are summarized in Table-5.

[4] = Pesticide residue in treated whole red chilli: Imidacloprid; settings: whole red chilli 12 kg's, Trial 1; HOCL and Trioxygen simultaneously
Source text: as §4, §5, §6

weevils and weevil eggs [5] = assay: Shelf-Life Assessment of Corn; set-up: key to Visual observation: Powder at the bottom of bag / Weevils/Insects / Visual observation: Pin holes on grain: ✓ Not observed; x Observed; settings: for Visual observation: Pin holes on grain / Visual observation: Powder at the bottom of bag / Weevils/Insects: Treated sample
Protocol: as §7, §8

Salmonella = Salmonella presence in treated whole red chilli; settings: whole red chilli 12 kg's, Trial 1
Protocol: as §1, §2, §3

weevils and weevil eggs [6] = assay: Shelf-Life Assessment of Wheat; set-up: key to Visual observation: Pin holes on grain / Visual observation: Powder at the bottom of bag / Weevils/Insects: ✓ Not observed; x Observed; settings: for Visual observation: Pin holes on grain / Visual observation: Powder at the bottom of bag / Weevils/Insects: Treated sample
Protocol: as §7, §8

O=[O+][O-] [Trioxygen]
80%: Total Plate Count, % Reduction (aerobic micro-organisms; Trial 2)
2 cream/buff colour: Remarks on Weevils/Insects, Treated: cream/buff colour insect (3 mm) observed alive (weevils and weevil eggs [6]; Post 5 Months)
No weevils/insects: Remarks on Weevils/Insects, Treated (weevils and weevil eggs [5]; Post 1.5 Months) | Remarks on Weevils/Insects, Treated (weevils and weevil eggs [5]; Post 2 Months) | Remarks on Weevils/Insects, Treated (weevils and weevil eggs [5]; Post 3 Months) | Remarks on Weevils/Insects, Treated (weevils and weevil eggs [5]; Post 5 Months) | Remarks on Weevils/Insects, Treated (weevils and weevil eggs [6]; Post 1.5 Months) | Remarks on Weevils/Insects, Treated (weevils and weevil eggs [6]; Post 2 Months) | Remarks on Weevils/Insects, Treated (weevils and weevil eggs [6]; Post 3 Months)
x: Weevils/Insects (weevils and weevil eggs [3]; 7 Months) | Weevils/Insects (weevils and weevil eggs [5]; 6 Months) | Weevils/Insects (weevils and weevil eggs [5]; 7 Months) | Weevils/Insects (weevils and weevil eggs [6]; 5 Months) | Weevils/Insects (weevils and weevil eggs [6]; 6 Months) | Weevils/Insects (weevils and weevil eggs [6]; 7 Months)
insects and 1 black insect: Remarks on Weevils/Insects, Treated: black insect alive (weevils and weevil eggs [3]; Post 7 Months)
No weevils/insects seen: Remarks on Weevils/Insects, Treated (weevils and weevil eggs [3]; Post 1.5 Months) | Remarks on Weevils/Insects, Treated (weevils and weevil eggs [3]; Post 2 Months) | Remarks on Weevils/Insects, Treated (weevils and weevil eggs [3]; Post 3 Months) | Remarks on Weevils/Insects, Treated (weevils and weevil eggs [3]; Post 5 Months) | Remarks on Weevils/Insects, Treated (weevils and weevil eggs [3]; Post 6 Months)
1.5 times: Number of weevils in treated sample compared to those in control, times less (weevils and weevil eggs [5]; at month 8)
1 small cream coloured: Remarks on Weevils/Insects, Treated: small cream coloured insects alive (weevils and weevil eggs [3]; Post 7 Months)
Absent/25 g: Salmonella, Results After Treatment (Salmonella; before treatment Present/25 g)
76%: C17H12O6, % Reduction ([1]; Trial 3)
No difference: Number of weevils in treated sample compared to those in control (weevils and weevil eggs [5]; at month 9)
100%: Myclobutanil, % Reduction [2] | Salmonella, % Reduction (Salmonella)
✓: Visual observation: Pin holes on grain (weevils and weevil eggs [3]; 1.5 Months) | Visual observation: Powder at the bottom of bag (weevils and weevil eggs [3]; 1.5 Months) | Weevils/Insects (weevils and weevil eggs [3]; 1.5 Months) | Visual observation: Pin holes on grain (weevils and weevil eggs [3]; 2 Months) | Visual observation: Powder at the bottom of bag (weevils and weevil eggs [3]; 2 Months) | Weevils/Insects (weevils and weevil eggs [3]; 2 Months) | Visual observation: Pin holes on grain (weevils and weevil eggs [3]; 3 Months) | Visual observation: Powder at the bottom of bag (weevils and weevil eggs [3]; 3 Months) | Weevils/Insects (weevils and weevil eggs [3]; 3 Months) | Visual observation: Pin holes on grain (weevils and weevil eggs [3]; 5 Months) | Visual observation: Powder at the bottom of bag (weevils and weevil eggs [3]; 5 Months) | Weevils/Insects (weevils and weevil eggs [3]; 5 Months) | Visual observation: Pin holes on grain (weevils and weevil eggs [3]; 6 Months) | Visual observation: Powder at the bottom of bag (weevils and weevil eggs [3]; 6 Months) | Weevils/Insects (weevils and weevil eggs [3]; 6 Months) | Visual observation: Pin holes on grain (weevils and weevil eggs [3]; 7 Months) | Visual observation: Powder at the bottom of bag (weevils and weevil eggs [3]; 7 Months) | Visual observation: Pin holes on grain (weevils and weevil eggs [5]; 1.5 Months) | Visual observation: Powder at the bottom of bag (weevils and weevil eggs [5]; 1.5 Months) | Weevils/Insects (weevils and weevil eggs [5]; 1.5 Months) | Visual observation: Pin holes on grain (weevils and weevil eggs [5]; 2 Months) | Visual observation: Powder at the bottom of bag (weevils and weevil eggs [5]; 2 Months) | Weevils/Insects (weevils and weevil eggs [5]; 2 Months) | Visual observation: Pin holes on grain (weevils and weevil eggs [5]; 3 Months) | Visual observation: Powder at the bottom of bag (weevils and weevil eggs [5]; 3 Months) | Weevils/Insects (weevils and weevil eggs [5]; 3 Months) | Visual observation: Pin holes on grain (weevils and weevil eggs [5]; 5 Months) | Visual observation: Powder at the bottom of bag (weevils and weevil eggs [5]; 5 Months) | Weevils/Insects (weevils and weevil eggs [5]; 5 Months) | Visual observation: Pin holes on grain (weevils and weevil eggs [5]; 6 Months) | Visual observation: Powder at the bottom of bag (weevils and weevil eggs [5]; 6 Months) | Visual observation: Pin holes on grain (weevils and weevil eggs [5]; 7 Months) | Visual observation: Powder at the bottom of bag (weevils and weevil eggs [5]; 7 Months) | Visual observation: Pin holes on grain (weevils and weevil eggs [6]; 1.5 Months) | Visual observation: Powder at the bottom of bag (weevils and weevil eggs [6]; 1.5 Months) | Weevils/Insects (weevils and weevil eggs [6]; 1.5 Months) | Visual observation: Pin holes on grain (weevils and weevil eggs [6]; 2 Months) | Visual observation: Powder at the bottom of bag (weevils and weevil eggs [6]; 2 Months) | Weevils/Insects (weevils and weevil eggs [6]; 2 Months) | Visual observation: Pin holes on grain (weevils and weevil eggs [6]; 3 Months) | Visual observation: Powder at the bottom of bag (weevils and weevil eggs [6]; 3 Months) | Weevils/Insects (weevils and weevil eggs [6]; 3 Months) | Visual observation: Pin holes on grain (weevils and weevil eggs [6]; 5 Months) | Visual observation: Powder at the bottom of bag (weevils and weevil eggs [6]; 5 Months) | Visual observation: Pin holes on grain (weevils and weevil eggs [6]; 6 Months) | Visual observation: Powder at the bottom of bag (weevils and weevil eggs [6]; 6 Months) | Visual observation: Pin holes on grain (weevils and weevil eggs [6]; 7 Months) | Visual observation: Powder at the bottom of bag (weevils and weevil eggs [6]; 7 Months)
5 times: Number of weevils in treated sample compared to those in control, times less (weevils and weevil eggs [5]; at month 7)
3 cream coloured: Remarks on Weevils/Insects, Treated: cream coloured insect observed alive (weevils and weevil eggs [5]; Post 7 Months)
8.36 × 10^5 cfu/g: Total Plate Count, Results After Treatment (aerobic micro-organisms; Trial 3, before treatment 2.4 × 10^7 cfu/g)
3.0 × 10^7 cfu/g: Aerobic Plate Count, Results After Treatment (aerobic micro-organisms; Trial 1, before treatment 9.82 × 10^8 cfu/g)
up to 6 months: No weevil infestation in system treated samples up to (weevils and weevil eggs [3]) | Treatment effective in delaying infestation up to (weevils and weevil eggs [3]) | No weevil infestation in system treated samples up to (weevils and weevil eggs [5]) | Treatment effective in delaying infestation up to (weevils and weevil eggs [5]) | Treatment effective in delaying infestation up to (weevils and weevil eggs [6])
40%: Imidacloprid, % Reduction [4]
up to 3 months: No weevil infestation in system treated samples up to (weevils and weevil eggs [6])
97%: Aerobic Plate Count, % Reduction (aerobic micro-organisms; Trial 1) | Total Plate Count, % Reduction (aerobic micro-organisms; Trial 3)
3.72 × 10^7 cfu/g: Total Plate Count, Results After Treatment (aerobic micro-organisms; Trial 2, before treatment 1.85 × 10^8 cfu/g)
3 cream/buff colour: Remarks on Weevils/Insects, Treated: cream/buff colour insect (3 mm) observed alive (weevils and weevil eggs [6]; Post 6 Months) | Remarks on Weevils/Insects, Treated: cream/buff colour insect (3 mm) observed alive (weevils and weevil eggs [6]; Post 7 Months)
4 times: Number of weevils in treated sample compared to those in control, times less (weevils and weevil eggs [6]; at month 5)
1 cream coloured: Remarks on Weevils/Insects, Treated: cream coloured insect observed alive (weevils and weevil eggs [5]; Post 6 Months)
73%: C17H12O6, % Reduction ([1]; Trial 2)
